What was measured:
PD-1/PD-L1 = PD-1/PD-L1 (Homo sapiens (Human), UniProt Q9NZQ7); test: PD-1/PD-L1 binding assay (Alphascreen)
Description: Binding assays were conducted in a low volume white 384-well polystyrene plate in a final volume of 20 μL. Compounds to be analyzed were first serially diluted in DMSO and added to the plate wells before the addition of other reaction components. The final concentration of DMSO in the assay was 1%. The assay was carried out at 25° C. in the PBS buffer (pH 7.4) with 0.05% Tween-20 and 0.1% BSA. Recombinant human PD-L1 protein (19-238) with a His-tag at the C-terminus was purchased from AcroBiosystems (PD1-H5229). Recombinant human PD-1 protein (25-167) with Fc tag at the C-terminus was also from AcroBiosystems (PD1-H5257). PD-L1 and PD-1 proteins were diluted in the assay buffer (final concentration—0.67 and 0.20 nM respectively) and 10 μL was added to the plate well. Plates were centrifuged and proteins were preincubated with compounds for 40 minutes. The incubation was followed by the addition of 10 μL of assay buffer supplemented with Alphascreen Ni chelate donor beads (PerkinElmer—AS101D) and Protein A Acceptor beads (PerkinElmer—6760137) at final concentration 2.5 μg/mL under reduced light. After plate sealing, the plate was incubated in the dark at room temperature for 120 minutes before reading on a PHERAstar FS plate reader (BMG Labtech). IC50 determination was performed by fitting the curve of percent control activity versus the log of the compound concentration using the GraphPad Prism 5.0 software.

PD-L1 [1] = molecular target: T1, PD-L1 (Homo sapiens (Human), UniProt Q9NZQ7); test: Indirect PD-L1 internalization assay using MDA-MB231 cells; assay type: cell-based; conditions: 16 hrs
Description: For the indirect analysis, cell surface PD-L1 was detected with fluorescently labeled anti-PD-L1 (CD274) antibodies. CHO-PD-L1 cells were seeded at 2×10^5 cells per well of a 6-well tissue culture plate in 2 ml of F-12 medium supplemented with 10% FBS, 200 μg/ml Hydromycin and 250 μg/ml Geneticin and allowed to attach for 24 hours. After 24 hours, test compounds were added to a final concentration of 1 uM from DMSO stocks, and an equal volume of DMSO was added to control wells. Cells were incubated in the presence of a compound for 16 hours at 37° C., 5% CO2. Prior to analysis, the cells were washed twice with 1 mL of Ca, Mg free PBS and detached with 1 mL of lift buffer (10 mM Tris, 140 mM NaCl, 1 mM EDTA). The collected cells were stained with PE-conjugated mouse anti-human CD274 antibody according to manufacturer instructions: BD Pharmigen #557924 Clone MIH1 (20 μL of Ab per 100 uL of BSA based staining buffer) or eBioscience #12-5983 Clone MIH1 (2 μL per 100 ul of BSA based staining buffer). Cells were incubated at room temperature for 20 minutes, protected from light, washed twice with Ca, Mg free PBS and resuspended in 400 μL of PBS. Antibody binding was detected by flow cytometry using an Accuri C6 instrument. Isotype control antibody-stained cells were used as a negative control. To test that lack of PD-L1 cell surface staining was not due to inhibition of detection antibody binding by the test article, an acid-wash procedure was used. After 16 hours of incubation in the presence of a compound or anti-PD-L1 antibody, the remaining, non-internalized a compound or antibody was stripped from the cell surface using freshly prepared, ice-cold acid stripping buffer (DMEM/0.2% BSA, pH 3.5). Cells were washed in this manner three times for 5 minutes each on a shaking platform. The stripped cells were then washed with ice-cold PBS three times for 5 minutes each with gentle shaking, harvested with lift buffer and stained with PE-mouse anti human CD274 antibodies as described.
For the indirect method of assessing PD-L1 internalization using the MDA-MB231 breast cancer cell line, the procedure for the assays was the same as described for the CHO-PD-L1 cells with the following changes. MDA-MB231 were seeded at 2×10^5 cells per well of a 6-well tissue culture plate in 2 ml of RPMI1640 medium supplemented with 10% FBS. After compound treatment for 16 hrs, the cells were treated with the stripping buffer (DMEM/0.2% BSA, pH 3.5) prior to staining with the anti-CD274 antibodies as described.

PD-L1 [2] = molecular target: T1, PD-L1; test: Indirect whole blood PD-L1 internalization assay; assay type: cell-based; conditions: interferon γ, 18 hours, CD14+ gated
Description: To determine PD-L1 internalization in human whole blood, normal human blood (Biological Specialty Corp, Colmar. Pa.) was incubated in the presence or absence of a concentration range of test compounds and 1 ng/ml human interferon γ (R&D Systems Inc. Minn. Minn.) in a 96 well round bottom plate (Corning, Corning, N.Y.) for 18 hours at 37° C. Blood was then transferred into 96 well “2 ml Assay Block” (Corning, Corning N.Y.) and stained with PD-L1 (MIH1, eBioscience; or BD Biosciences San Jose, Calif.), CD14 (Life Technologies, Carlsbad, Calif.) for 30 minutes in the dark at room temperature. Whole Blood/red cells were lysed/fixed (lysis buffer BD Biosciences) for 5 minutes at 37° C. in dark and then centrifuged at 1600 RPM for 5 minutes and cells were transferred into 96 well round bottom plates (Corning). Cells were gated on CD14+ (BD Biosciences) and PD-L1 expression determined by mean fluorescence intensity (MFI) (BD LSRFortessa™ X-20). IC50 determination was performed by fitting the curve of compound percent inhibition versus the log of the compound concentration using the GraphPad Prism 7.0 software.

IRF3 = IRF3 activation assay in THP-1 Dual cells; assay type: cell-based; conditions: Homo sapiens, THP-1, Table 4C; read-out: THP1 IRF3 EC50
Procedure, shortened: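 THP-1 Dual cells (100,000/well) were treated with serially diluted compound for 24 h at 37° C, 5% CO2. IRF3 reporter activity in supernatant was read with QUANTI-Blue as absorbance at 620-655 nm after 2 h, with untreated cells as negative control. EC50 came from fitting percent control activity against log concentration.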

[3] = test system: IFNβ production in CD11b+ monocytes; test: IFN-beta induction in CD11b+ monocytes from lung cancer pleural effusions; assay type: cell-based, human; conditions: Homo sapiens; CD11b+ monocyte cultures, lung cancer pleural effusion, 20 hours; read-out: EC50 for IFNβ induction, Cancer patient
Description: (§1) CD11b^+ cells were isolated from healthy PBMCs as well as Pleural effusion samples using Miltenyi isolation kit according to manufacturer's protocol. Cells were seeded in 96 well plates at the density of 300,000 cells/wells, and then treated with various concentrations of compounds for 20 hours. After 20 hours, IFN-beta secretion levels were evaluated in the culture supernatants by MSD singleplex assay. EC50 values were calculated using Prism software.
(§2) Different naked STING agonisst and PD-L1-targeted small molecule-STING agonist conjugates were added to CD11b^+ monocytes cultures isolated from healthy donor blood or lung cancer patients' pleural effusions. Culture supernatants were collected 20 hours later and IFNβ production were determined using MSD singleplex assay.

[4] = test system: IFNβ production in CD11b+ monocytes; test: IFN-beta induction in CD11b+ monocytes from healthy donor PBMC; assay type: cell-based, human; conditions: Homo sapiens, CD11b+ monocyte cultures, 20 hours, mean ± SEM
Description: as §1, §2

T1 sequence (Q9NZQ7 19-290): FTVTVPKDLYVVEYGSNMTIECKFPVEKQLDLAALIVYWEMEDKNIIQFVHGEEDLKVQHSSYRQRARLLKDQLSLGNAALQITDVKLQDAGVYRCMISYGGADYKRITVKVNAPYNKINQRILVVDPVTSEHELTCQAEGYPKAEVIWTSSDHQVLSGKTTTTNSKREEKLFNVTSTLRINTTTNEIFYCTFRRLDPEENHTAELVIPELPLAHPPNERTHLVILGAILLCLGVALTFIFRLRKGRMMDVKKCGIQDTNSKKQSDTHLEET
Sequence of PD-1/PD-L1 (Q9NZQ7 19-238): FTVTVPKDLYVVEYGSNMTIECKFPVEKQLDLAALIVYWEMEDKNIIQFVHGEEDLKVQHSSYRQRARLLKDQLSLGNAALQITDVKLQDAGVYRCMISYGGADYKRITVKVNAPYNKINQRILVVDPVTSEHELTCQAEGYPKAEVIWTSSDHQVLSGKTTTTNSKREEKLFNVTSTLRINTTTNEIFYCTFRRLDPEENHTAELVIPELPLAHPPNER

Cc1c(-c2nc3c(Cl)cc(CN4CC[C@@H](O)C4)cn3n2)cccc1-c1cccc(-c2nc3cc(CN4CC[C@@H](C(=O)O)C4)cc(C#N)c3o2)c1C [Example P25]
IC50 (PD-1/PD-L1): 0.1 to 1 nM | IC50 (PD-L1 [1]): 10 to 100 nM | IC50 (PD-L1 [2]): 1000 to 5000 nM

Cc1c(NC(=O)c2nc3c(n2C)CCN(C2CCOCC2)C3)cccc1-c1cccc(NC(=O)c2nc3c(n2C)CCN(C)C3)c1Cl [Example P9]
IC50 (PD-1/PD-L1): 0.1 to 1 nM | IC50 (PD-L1 [2]): < 100 nM

Cc1c(-c2nc3cc(CN4CC[C@@](C)(C(=O)O)C4)cc(C#N)c3o2)cccc1-c1cccc(Nc2nccc3cc(CN4CC[C@H](O)C4)cnc23)c1Cl [Example P16]
IC50 (PD-1/PD-L1): 0.1 to 1 nM | IC50 (PD-L1 [1]): 10 to 100 nM | IC50 (PD-L1 [2]): 100 to 1000 nM

CCn1nc(C)cc1C(=O)Nc1nc2cc(C(N)=O)cc(OCCCOC(=O)NCCC(=O)O)c2n1C/C=C/Cn1c2nc(-c3cc(C)nn3CC)ncc2c2cc(C(N)=O)cc(OCCCOC)c21 [Example S48, (E)-3-(((3-((5-carbamoyl-1-(4-(6-carbamoyl-2-(1-ethyl-3-methyl-1H-pyrazol-5-yl)-8-(3-methoxypropoxy)-9H-pyrimido[4,5-b]indol-9-yl)but-2-en-1-yl)-2-(1-ethyl-3-methyl-1H-pyrazole-5-carboxamido)-1H-benzo[d]imidazol-7-yl)oxy)propoxy)carbonyl)amino)propanoic acid]
EC50 (IRF3): ≤ 50 nM | EC50 [3]: 38 nM | EC50 [4]: 64 ± 12 nM

Cc1c(-c2nc3cc(CN4CC[C@@H](C(=O)O)C4)cc(C#N)c3o2)cccc1-c1cccc(-n2cc3c(n2)CN(C(C)C)CC3)c1Cl [Example P19]
IC50 (PD-1/PD-L1): 0.1 to 1 nM | IC50 (PD-L1 [1]): > 500 nM | IC50 (PD-L1 [2]): 100 to 1000 nM

Cc1c(Nc2nccc3cc(CN4CC[C@@H](O)C4)cnc23)cccc1-c1cccc(-c2nc3c(Cl)cc(CN4CC[C@@H](C(=O)O)C4)cn3n2)c1C [Example P17]
IC50 (PD-1/PD-L1): 0.1 to 1 nM | IC50 (PD-L1 [1]): 100 to 500 nM | IC50 (PD-L1 [2]): 100 to 1000 nM

Cc1c(-c2nc3cc(CN4CC[C@@H](C(=O)O)C4)cc(C#N)c3o2)cccc1-c1cccc(NC(=O)c2nc3c(n2C)CCN(C)C3)c1Cl [Example P22]
IC50 (PD-1/PD-L1): 0.1 to 1 nM | IC50 (PD-L1 [2]): < 100 nM

Cc1c(Nc2nccc3cc(CN4CC[C@@H](O)C4)cnc23)cccc1-c1cccc(Nc2nccc3cc(CN4CC[C@@H](C(=O)O)C4)cnc23)c1C [Example P18]
IC50 (PD-1/PD-L1): 0.1 to 1 nM | IC50 (PD-L1 [2]): 100 to 1000 nM

Cc1c(NC(=O)c2nc3c(n2C)CCN(C[C@H](C)O)C3)cccc1-c1cccc(NC(=O)c2nc3c(n2C)CCN(C)C3)c1Cl [Example P8]
IC50 (PD-1/PD-L1): 0.1 to 1 nM | IC50 (PD-L1 [1]): < 10 nM | IC50 (PD-L1 [2]): < 100 nM

Cc1c(Nc2nccc3cc(CN4CC[C@@H](O)C4)cnc23)cccc1-c1cccc(-c2nc3cc(CC4CC[C@@H](C(=O)O)C4)cc(C#N)c3o2)c1C (stereo partly shown) [Example P14]
IC50 (PD-1/PD-L1): 0.1 to 1 nM | IC50 (PD-L1 [1]): < 10 nM | IC50 (PD-L1 [2]): < 100 nM

Cc1c(-c2nc3cc(CN4CC[C@@H](C(=O)O)C4)cc(C#N)c3o2)cccc1-c1cccc(-c2nc3c(s2)CNCC3)c1C [Example P12]
IC50 (PD-1/PD-L1): 0.1 to 1 nM | IC50 (PD-L1 [1]): 10 to 100 nM | IC50 (PD-L1 [2]): 100 to 1000 nM

Cc1c(Nc2nccc3cc(CN4CC[C@@H](O)C4)cnc23)cccc1-c1cccc(-c2nc3cc(CN4CC(C(=O)O)C4)cc(Cl)c3o2)c1C [Example P24]
IC50 (PD-1/PD-L1): 0.1 to 1 nM | IC50 (PD-L1 [1]): 10 to 100 nM | IC50 (PD-L1 [2]): 100 to 1000 nM

Cc1c(NC(=O)c2nc3c(n2C)CCN(C[C@@H](C)O)C3)cccc1-c1cccc(NC(=O)c2nc3c(n2C)CCN(C)C3)c1Cl [Example P10]
IC50 (PD-1/PD-L1): 0.1 to 1 nM | IC50 (PD-L1 [1]): < 10 nM | IC50 (PD-L1 [2]): < 100 nM

Cc1c(Nc2nccc3cc(CN4CC[C@@H](O)C4)cnc23)cccc1-c1cccc(-c2nc3cc(CN4CC[C@@H](C(=O)O)C4)cc(C#N)c3o2)c1C [Example P15]
IC50 (PD-1/PD-L1): 0.1 to 1 nM | IC50 (PD-L1 [2]): 100 to 1000 nM

Cc1c(Nc2nccc3cc(CN4CC[C@H](C(=O)O)C4)cnc23)cccc1-c1nccc(Nc2nccc3cc(CN4CC[C@@H](O)C4)cnc23)c1C [Example P23]
IC50 (PD-1/PD-L1): 0.1 to 1 nM | IC50 (PD-L1 [1]): 10 to 100 nM | IC50 (PD-L1 [2]): 100 to 1000 nM

CCn1nc(C)cc1C(=O)Nc1nc2cc(C(N)=O)cc(OCCCNC(=O)OCC(=O)O)c2n1C/C=C/Cn1c2nc(-c3cc(C)nn3CC)ncc2c2cc(C(N)=O)cc(OCCCOC)c21 [Example S45, (E)-2-(((3-((5-carbamoyl-1-(4-(6-carbamoyl-2-(1-ethyl-3-methyl-1H-pyrazol-5-yl)-8-(3-methoxypropoxy)-9H-pyrimido[4,5-b]indol-9-yl)but-2-en-1-yl)-2-(1-ethyl-3-methyl-1H-pyrazole-5-carboxamido)-1H-benzo[d]imidazol-7-yl)oxy)propyl)carbamoyl)oxy)acetic acid]
EC50 (IRF3): ≤ 50 nM | EC50 [3]: 56 nM | EC50 [4]: 119 ± 22 nM

Cc1c(-c2nc3c(C#N)cc(CN4CC[C@@H](O)C4)cn3n2)cccc1-c1cccc(-c2nc3cc(CN4CC[C@@H](C(=O)O)C4)cc(C#N)c3o2)c1C [Example P26]
IC50 (PD-1/PD-L1): 0.1 to 1 nM | IC50 (PD-L1 [1]): 10 to 100 nM | IC50 (PD-L1 [2]): 100 to 1000 nM

Cc1c(Nc2nccc3cc(CN4CC[C@@H](O)C4)cnc23)cccc1-c1cccc(-c2nc3cc(CNCC(C)(C)C(=O)O)cc(C#N)c3o2)c1C [Example P21]
IC50 (PD-1/PD-L1): 0.1 to 1 nM | IC50 (PD-L1 [1]): 10 to 100 nM | IC50 (PD-L1 [2]): 100 to 1000 nM

Cc1c(Nc2nccc3cc(CN4CC[C@@H](O)C4)cnc23)cccc1-c1cccc(-c2nc3cc(CN4CC(C(=O)O)C4)cc(C#N)c3o2)c1C [Example P20]
IC50 (PD-1/PD-L1): 0.1 to 1 nM | IC50 (PD-L1 [2]): 100 to 1000 nM
